Measured values from patent publication US9951052B2, “Inhibitors of the renal outer medullary potassium channel” (Merck Sharp & Dohme Corp., priority 2013, dated 2018).
pIC50: −log10 of the molar value. Counter-ions that a name gives are not always drawn.

Biological target: T1, hROMK (hKir1.1) (Homo sapiens, UniProt P48048)
T1 construct: expressed in transfected cells
T1 sequence (P48048 1-391): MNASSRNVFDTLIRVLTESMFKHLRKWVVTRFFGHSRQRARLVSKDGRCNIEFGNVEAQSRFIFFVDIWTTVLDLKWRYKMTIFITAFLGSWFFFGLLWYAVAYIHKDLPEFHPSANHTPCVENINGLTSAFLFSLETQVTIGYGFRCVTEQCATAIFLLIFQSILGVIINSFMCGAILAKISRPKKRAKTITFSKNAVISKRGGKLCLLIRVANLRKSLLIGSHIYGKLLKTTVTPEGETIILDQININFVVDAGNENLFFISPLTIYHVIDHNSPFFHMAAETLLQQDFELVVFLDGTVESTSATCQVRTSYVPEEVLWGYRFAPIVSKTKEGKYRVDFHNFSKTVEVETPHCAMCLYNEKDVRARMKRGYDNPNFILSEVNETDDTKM
Test: Thallium Flux Assay (ROMK channel functional thallium flux, FLIPR-Tetra)
Type: cell-based
Settings: HEK293 cells stably expressing hROMK (hKir1.1); 30 min incubation with compound; HCl salt run where final product was an HCl salt
Experimental: The following Thallium Flux Assay was performed on each of the final product compounds in the Examples. When the final product of an Example was an HCl salt, the salt was run in the Assay.
Cell Culture Conditions—HEK293 cells stably expressing hROMK (hKir1.1) were grown at 37° C. in a 10% CO2 humidified incubator in complete growth media: Dulbecco's Modified Eagle Medium supplemented with non-essential amino acids, Penicillin/Streptomycin/Glutamine, G418 and FBS. At >80% confluency, aspirate the media from the flask and rinse with 10 mL Calcium/Magnesium-free PBS. Add 5 mL of 1× trypsin (prepared in Ca/Mg Free PBS) to T-225 flask and return flask to 37° C./CO2 incubator for 2-3 minutes. To dislodge the cell, gently bang the side of the flask with your hand. Triturate the cells completely and then transfer the cells to 25 mL complete media. Centrifuge at 1,500 rpm for 6 min followed by resuspension in complete growth media and determine cell concentration. For typical re-seeding, 4E6 cells/T-225 flask will attain >80% confluency in 4 days. Under ideal growth conditions and appropriate tissue culture practices, this cell line is stable for 40-45 passages.
FluxOR Kit Components (Invitrogen F10017)
• FluxOR™ Reagent (Component A) • FluxOR™ Assay Buffer (Component B)—10× Concentrate • PowerLoad™ Concentrate (Component C)—100× Concentrate • Probenecid (Component D)—Lyophilized sample is kept at −20° C. Water soluble, 100× after solubilization in 1 mL water. Store at 4° C. • FluxOR™ Chloride-free Buffer (Component E)—5× Concentrate • Potassium sulfate (K2SO4) Concentrate (Component F)—125 mM in water. Store at 4° C. • Thallium sulfate (T12SO4) Concentrate (Component G)—50 mM in water. Store at 4° C. • DMSO (dimethyl sulfoxide, Component H)—1 mL (100%) Reagent Preparation: FluxOR Working Solutions • 1000× FluxOR™ Reagent: Reconstitute a vial of component A in 100 μl DMSO; Mix well; Store 10 μl aliquots at −20° C. • 1× FluxOR™ Assay Buffer: Dilute Component B 10-fold with water; Adjust pH to 7.4 with Hepes/NaOH; Filter and store at 4° C. • Probenecid/Assay Buffer: 100 mL of 1× FluxOR™ Assay Buffer; 1 mL of reconstituted component D; Store at 4° C. • Loading Buffer (per microplate): 10 μl 1000× FluxOR™ Reagent; 100 μl component C; 10 mL Probenecid/Assay Buffer • Compound Buffer (per microplate): 20 mL Probenecid/Assay Buffer; 0.3 mM ouabain (10 mM ouabain in water can be stored in amber bottle/aluminum foil at room temperature); Test compound • 1× FluxOR™ Chloride-Free Buffer: Prepare 1× working solution in water. Can be stored at room temperature • Stimulant Buffer (prepared at 5× final concentration in 1× FluxOR™ Chloride-Free Buffer): 7.5 mM Thallium sulfate and 0.75 mM Potassium sulfate (to give a final assay concentration of 3 mM Thallium/0.3 mM Potassium). Store at 4° C. when not in use.
Assay protocol—The ROMK channel functional thallium flux assay is performed in 384 wells, using the FLIPR-Tetra instrument. HEK-hKir1.1 cells are seeded in Poly-D-Lysine microplates and kept in a 37° C.-10% CO2 incubator overnight. On the day of the experiment, the growth media is replaced with the FluxOR™ reagent loading buffer and incubated, protected from light, at ambient temperature (23-25° C.) for 90 min. The loading buffer is replaced with assay buffer±test compound followed by 30 min incubation at ambient temperature, where the Thallium/Potassium stimulant is added to the microplate.
• 1. Seed HEK-hKir1.1 cells (50 μl at 20,000 cells/well) in 384-well PDL coated Microplates • 2. Allow cells to adhere overnight in humidified 37° C./10% CO2 incubator • 3. Completely remove cell growth media from microplate and replace with 25 μl loading buffer • 4. Incubate Microplate at room temperature, protected from light, for 90 min • 5. Remove loading buffer and replace with 25 μl 1× Assay Buffer±test compound. • 6. Incubate microplate at room temperature, protected from light, for 30 min • 7. […]

COc1cc(NC(=O)C2CCN(CCc3ccc4c(c3)COC4=O)CC2)ccc1C#N [Example 13, N-(4-cyano-3-methoxyphenyl)-1-(2-(1-oxo-1,3-dihydroisobenzofuran-5-yl)ethyl)piperidine-4-carboxamide]
pIC50: 7.52

Cc1c([C@@H](O)CN2CCC(O)(C(=O)Nc3ccns3)CC2)ccc2c1COC2=O [Example 38, (R)-4-hydroxy-1-(2-hydroxy-2-(4-methyl-1-oxo-1,3-dihydroisobenzofuran-5-yl)ethyl)-N-(isothiazol-5-yl)piperidine-4-carboxamide]
pIC50: 6.96

Cc1c([C@@H](O)CN2CC3C(C2)C3C(=O)Nc2ccns2)ccc2c1COC2=O (stereo partly drawn) [Example 54, 3-[(2R)-2-hydroxy-2-(4-methyl-1-oxo-1,3-dihydro-2-benzofuran-5-yl)ethyl]-N-(isothiazol-5-yl)-3-azabicyclo[3.1.0]hexane-6-carboxamide]
pIC50: 6.80

Cc1c([C@@H](O)CN2CC3C(C2)C3C(=O)Nc2ccc(C#N)cn2)ccc2c1COC2=O (stereo partly drawn) [Example 59, N-(5-cyanopyridin-2-yl)-3-((R)-2-hydroxy-2-(4-methyl-1-oxo-1,3-dihydroisobenzofuran-5-yl)ethyl)-3-azabicyclo[3.1.0]hexane-6-carboxamide]
pIC50: 6.40

Cc1c([C@@H](O)CN2CCC(C(=O)Nc3ccncc3)CC2)ccc2c1COC2=O [Example 35, (R)-1-(2-hydroxy-2-(4-methyl-1-oxo-1,3-dihydroisobenzofuran-5-yl)ethyl)-N-(pyridin-4-yl)piperidine-4-carboxamide]
pIC50: 6.38

CCOc1cc(NC(=O)C2CCN(CCc3ccc4c(c3)COC4=O)CC2)ccc1C#N [Example 12, N-(4-cyano-3-ethoxyphenyl)-1-[2-(1-oxo-1,3-dihydro-2-benzofuran-5-yl)ethyl]piperidine-4-carboxamide]
pIC50: 7.52

Cc1c([C@@H](O)CN2CCC(C(=O)Nc3nc(C#N)cs3)CC2)ccc2c1COC2=O [Example 29, (R)-N-(4-cyanothiazol-2-yl)-1-(2-hydroxy-2-(4-methyl-1-oxo-1,3-dihydroisobenzofuran-5-yl)ethyl)piperidine-4-carboxamide]
pIC50: 6.62

CCOc1cc(NC(=O)C2CCN(C[C@H](O)c3ccc4c(c3C)COC4=O)CC2)ccc1C#N [Example 25, (R)-N-(4-cyano-3-ethoxyphenyl)-1-(2-hydroxy-2-(4-methyl-1-oxo-1,3-dihydroisobenzofuran-5-yl)ethyl)piperidine-4-carboxamide]
pIC50: 6.74

Cc1c(CCN2CCC(C(=O)Nc3ccc(C#N)c4ccccc34)CC2)ccc2c1COC2=O [Example 6, N-(4-cyanonaphthalen-1-yl)-1-(2-(4-methyl-1-oxo-1,3-dihydroisobenzofuran-5-yl)ethyl)piperidine-4-carboxamide]
pIC50: 7.15

Cc1ccc(C#N)cc1NC(=O)C1CCN(CCc2ccc3c(c2C)COC3=O)CC1 [Example 2, N-(5-cyano-2-methylphenyl)-1-(2-(4-methyl-1-oxo-1,3-dihydroisobenzofuran-5-yl)ethyl)piperidine-4-carboxamide]
pIC50: 6.34

Cc1c(CCN2CCC(C(=O)Nc3ccc(C#N)nc3)CC2)ccc2c1COC2=O [Example 4, N-(6-cyanopyridin-3-yl)-1-(2-(4-methyl-1-oxo-1,3-dihydroisobenzofuran-5-yl)ethyl)piperidine-4-carboxamide]
pIC50: 6.68

Cc1c([C@@H](O)CN2CCC(F)(C(=O)Nc3cnsc3)CC2)ccc2c1COC2=O [Example 50, (R)-4-fluoro-1-(2-hydroxy-2-(4-methyl-1-oxo-1,3-dihydroisobenzofuran-5-yl)ethyl)-N-(isothiazol-4-yl)piperidine-4-carboxamide]
pIC50: 6.43

O=C1OCc2cc(CCN3CCC(C(=O)Nc4ccc5[nH]nnc5c4)CC3)ccc21 [Example 19, N-(1H-benzo[d][1,2,3]triazol-5-yl)-1-(2-(1-oxo-1,3-dihydroisobenzofuran-5-yl)ethyl)piperidine-4-carboxamide]
pIC50: 6.36

Cc1c(C(O)CN2CCC(O)(C(=O)Nc3ccc(C#N)cn3)CC2)ccc2c1COC2=O (stereo in doubt) [Example 37, (R)-N-(5-cyanopyridin-2-yl)-4-hydroxy-1-(2-hydroxy-2-(4-methyl-1-oxo-1,3-dihydroisobenzofuran-5-yl)ethyl)piperidine-4-carboxamide]
pIC50: 6.33

N#Cc1ccc(NC(=O)C2CCN(CCc3ccc4c(c3)COC4=O)CC2)c(OC(F)(F)F)c1 [Example 15, N-(4-cyano-2-(trifluoromethoxy)phenyl)-1-(2-(1-oxo-1,3-dihydroisobenzofuran-5-yl)ethyl)piperidine-4-carboxamide]
pIC50: 6.74

Cc1c([C@@H](O)CN2CC3C(C2)C3C(=O)Nc2cnsc2)ccc2c1COC2=O (stereo partly drawn) [Example 58, 3-((R)-2-hydroxy-2-(4-methyl-1-oxo-1,3-dihydroisobenzofuran-5-yl)ethyl)-N-(isothiazol-4-yl)-3-azabicyclo[3.1.0]hexane-6-carboxamide]
pIC50: 6.55

Cc1c([C@@H](O)CN2CCC(C(=O)Nc3snc4ccncc34)CC2)ccc2c1COC2=O [Example 30, (R)-1-(2-hydroxy-2-(4-methyl-1-oxo-1,3-dihydroisobenzofuran-5-yl)ethyl)-N-(isothiazolo[4,3-c]pyridin-3-yl)piperidine-4-carboxamide]
pIC50: 7.00

Cc1c([C@@H](O)CN2CCC(C(=O)Nc3nc(C4CC4)ns3)CC2)ccc2c1COC2=O [Example 32, (R)-N-(3-cyclopropyl-1,2,4-thiadiazol-5-yl)-1-(2-hydroxy-2-(4-methyl-1-oxo-1,3-dihydroisobenzofuran-5-yl)ethyl)piperidine-4-carboxamide]
pIC50: 6.52

Cc1c([C@@H](O)CN2CCC(C(=O)Nc3ccc(-n4cccn4)cc3)CC2)ccc2c1COC2=O [Example 23, (R)-N-(4-(1H-pyrazol-1-yl)phenyl)-1-(2-hydroxy-2-(4-methyl-1-oxo-1,3-dihydroisobenzofuran-5-yl)ethyl)piperidine-4-carboxamide]
pIC50: 7.10

Cl.[2H]C([2H])([2H])N(C(=O)C1CCN(C[C@H](O)c2ccc3c(c2C)COC3=O)CC1)c1ccns1 [Example 42, 1-[(2R)-2-hydroxy-2-(4-methyl-1-oxo-1,3-dihydro-2-benzofuran-5-yl)ethyl]-N-(isothiazol-5-yl)-N-trideuteromethylpiperidine-4-carboxamide]
pIC50: 7.70

Cc1c([C@@H](O)CN2CCC(N)(C(=O)Nc3ccns3)CC2)ccc2c1COC2=O [Example 46, 4-amino-1-[(2R)-2-hydroxy-2-(4-methyl-1-oxo-1,3-dihydro-2-benzofuran-5-yl)ethyl]-N-(isothiazol-5-yl)piperidine-4-carboxamide hydrochloride]
pIC50: 7.30
